According to the NIST ThermoML archive (doi:10.1021/je700741x):
± gives the expanded uncertainty stated by the source.

Settings: 298.15 K; 101.33 kPa; Liquid

SMILES | mass density [kg/m3]
OCC(F)(F)F [2,2,2-trifluoroethanol] | 1382.4 ± 1.6
CC(C)O [propan-2-ol] | 781.4 ± 1.1
CCO [ethanol] | 785.2 ± 1
C1CCCCC1 [cyclohexane] | 774 ± 1
